In patent US11649238B2, “Substituted pyrazolo[1,5-a]pyrimidines as PI4K inhibitors” (GLAXOSMITHKLINE INTELLECTUAL PROPERTY DEVELOPMENT LIMITED, priority 2018, dated 2023):

Tested on: human rhinovirus Type A Strain 16 (HRVA16) in HeLa Ohio cells
Experiment: Cytopathic Effect (CPE) Assay, ATP-depletion in infected HeLa Ohio cells
Format: cell-based
Details: Human rhinovirus sp., HRVA16, HeLa, 48 h, HRVA16 at MOI of 1, 33° C. for 2 days, CellTiter-Glo, read-out: mean pIC50 (converted)
Experimental: c) Cytopathic Effect (CPE) Assay Protocol
The in vitro inhibition of PI4 KB activity was determined by analysis of the inhibition of ATP-depletion in HeLa Ohio cells in response to infection with human rhinovirus Type A Strain 16 (HRVA16). ATP levels were determined using CellTiter-GLO reagent from Promega. Compounds that inhibit PI4 KB are also potent inhibitors of human rhinoviruses and are able to protect HeLa Ohio cells from CPE induced by viral infection and replication. Protected cells remain viable following viral infection and therefore have greater ATP levels.
Compounds were dissolved in 100% DMSO to a concentration of 3 mM and subsequent dilutions were prepared in 100% DMSO using a 1:3 serial step dilution. A 0.5 μL stamp from an 10-point titration was transferred to a white 96 well Greiner tissue culture flat bottom plate (655083). A 0.5 μL stamp of 100% DMSO was stamped into columns 11 and 12 of the plate, ensuring a final assay DMSO concentration of 0.33% across the plate and a compound top final assay concentration of 10 μM.
HeLa Ohio cells were cultured at 37° C., 5% CO2 in media (DMEM supplemented with 10% Australian origin foetal bovine serum and 2 mM glutamax). Cells were passaged when confluency reached >80%. For the assay, cells were grown to 80-90% confluency before detachment.
Cells were detached for the assay by washing with PBS and detached using 3 mL TrypLE Express for […] at 37° C. Detached cells were mixed with 7 mL of media and centrifuged at 300 g for 5 min. The cell pellet was resuspended in 50 mL media and counted on a Beckman Coulter ViCell. Cells were diluted to 6.6×10^4 cells/mL and some of the cell volume was removed into a new tube to be used as a column 12 control. HRVA16 stock was added to the remaining cell suspension at the appropriate dilution for the virus stock to achieve an MOI of 1.
150 μL of the cell+virus suspension was added per well to columns 1-11 using a Multidrop Combi. 150 μL of the separate cell suspension was added per well to columns 12 using a multichannel pipette. Assay plates were sealed and incubated at 33° C., 5% CO2 for 2 days. After 2 days, assay plates were removed from the incubator and allowed to equilibrate to room temperature. 60 μL of CellTiter-Glo reagent was added to all wells using a Thermo Scientific Multidrop Combi. Plates were incubated at room temperature for 20 min before reading on an a Perkin Elmer Envision (Settings: Gripper height 2.5, Fixed measurement height (mm) 6.5, Distance between plate and detector 0, Measurement time (s) 0.1, Glow (ct2) correction factor (0%)).
The inhibitory effect of the compounds on the PI4 KB activity was evaluated by the IC50 of the response relative to the high (no virus, column 12) and low (virus+no inhibitor, column 11) controls by fitting to a four parameter dose response equation.

IC50 | SMILES
≤ 25.1 nM | Cc1ccc(-c2c(C)nn3c(NCc4cccc(-c5nccn5C)c4)cc(C(C)(C)O)nc23)cc1C(=O)NCCCO [Compound 60]
≤ 25.1 nM | COc1ccc(-c2c(C)nn3c(NCc4cccc(-c5nccn5C)c4)cc(C(C)(C)O)nc23)cc1C(=O)N1CCOC[C@@H]1C [Compound 30]
≤ 25.1 nM | COc1ccc(-c2c(C)nn3c(NCc4cccc(-c5nccn5C)c4)cc(C(C)(C)O)nc23)cc1C(=O)N1CC[C@H](O)C1 [Compound 8, (S)-(5-(5-(2-Hydroxypropan-2-yl)-2-methyl-7-((3-(1-methyl-1H-imidazol-2-yl)benzyl)amino)pyrazolo[1,5-a]pyrimidin-3-yl)-2-methoxyphenyl)(3-hydroxypyrrolidin-1-yl)methanone]
≤ 25.1 nM | Cc1ccc(-c2c(C)nn3c(NCc4cccc(-c5nccn5C)c4)cc(C(C)O)nc23)cc1C(=O)N(C)CCCO (stereo not shown) [Compound 13]

Biological target: T1, human PI4KIII-beta 13-828 (D316-330) (Homo sapiens, UniProt Q9UBF8)
T1 construct: human PI4KIII-beta 13-828 (D316-330)
Experiment: PI4 KB Activity Assay (ADP-GLO Kinase assay)
Format: biochemical
Details: 1 mM ATP, 60 μM phosphatidylinositol, 3 hours at room temperature; read-out: mean pIC50 (converted)
Experimental: The in vitro inhibition of human PI4KIII-beta 13-828 (D316-330) activity was determined by using the ADP-GLO Kinase assay kit from Promega. Inhibitors were dissolved in 100% DMSO at a concentration of 1 mM. Dilutions were prepared in 100% DMSO using a 1 in 3 serial step dilution. A 60 nL stamp from an 11-point titration was transferred to a white low volume 384 well Greiner assay plate ensuring a final DMSO concentration of 1% across the plate and a top final concentration of inhibitor of 10 μM. The PI4KIII-beta assay contained 25 mM Hepes pH 7.5 (NaOH), 10 mM MgCl2, 0.5 mM EGTA, 0.1% Triton X-100, 2 mM TCEP, and 0.1 mg/ml BSA, 1 mM ATP, 60 μM phosphatidylinositol, and 1.5 nM human PI4K-beta 13-828 (D316-330) in a total volume of 6 μL. The assay was initiated with the addition of enzyme, covered, and incubated at room temperature for 3 hours. The assays were stopped with the addition of 6 μl ADP-GLO Reagent containing 0.1% CHAPS to deplete the unconsumed ATP. The plates were incubated at room temperature for 60 min and then 12 μl of the Kinase Detection Reagent containing 0.1% CHAPS was added to convert ADP to ATP and introduce luciferase and luciferin. After 40 min incubation at room temperature the luminescent signal was read on a BMG Labtech PHERAstar FS with the following settings; Gain 3600, Focal height 13.7 mm, measurement interval time 1 s, Settling time 0.2 s. The inhibitory effect of the PI4K-beta activity of the compounds was evaluated by the IC50 of the response relative to the high, no compound, and low, no enzyme, controls by fitting to the four parameter dose response question.

T1 sequence (Q9UBF8 1-801 isoform Q9UBF8-2): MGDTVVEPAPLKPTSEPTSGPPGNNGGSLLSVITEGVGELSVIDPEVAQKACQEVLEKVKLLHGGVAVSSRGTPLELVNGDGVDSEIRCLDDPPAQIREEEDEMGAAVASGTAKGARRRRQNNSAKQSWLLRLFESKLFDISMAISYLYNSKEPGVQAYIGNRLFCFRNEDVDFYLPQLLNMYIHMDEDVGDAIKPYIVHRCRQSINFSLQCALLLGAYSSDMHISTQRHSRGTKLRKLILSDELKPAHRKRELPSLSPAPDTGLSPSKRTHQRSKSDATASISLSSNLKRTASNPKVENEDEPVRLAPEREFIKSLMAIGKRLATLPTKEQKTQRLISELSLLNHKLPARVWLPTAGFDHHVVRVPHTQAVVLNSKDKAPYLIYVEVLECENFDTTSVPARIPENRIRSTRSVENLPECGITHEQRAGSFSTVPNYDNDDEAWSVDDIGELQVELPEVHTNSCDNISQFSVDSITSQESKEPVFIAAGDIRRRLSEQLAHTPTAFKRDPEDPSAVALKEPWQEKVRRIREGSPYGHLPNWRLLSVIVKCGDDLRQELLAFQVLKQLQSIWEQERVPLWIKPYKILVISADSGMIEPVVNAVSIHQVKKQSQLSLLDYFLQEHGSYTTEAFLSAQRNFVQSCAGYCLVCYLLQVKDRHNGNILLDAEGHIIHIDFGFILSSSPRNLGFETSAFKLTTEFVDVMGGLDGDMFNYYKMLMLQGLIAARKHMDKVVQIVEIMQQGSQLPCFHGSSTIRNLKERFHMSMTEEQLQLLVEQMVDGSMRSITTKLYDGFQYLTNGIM

SMILES | IC50
Cc1ccc(-c2c(C)nn3c(NCc4cccc(-c5nccn5C)c4)cc(C(C)(C)O)nc23)cc1C(=O)NCCCO [Compound 60] | ≤ 3.98 nM
CCC(O)c1cc(NCc2cccc(-c3nccn3C)c2)n2nc(C)c(-c3ccc(C)c(C(=O)N(C)[C@@H](C)CO)c3)c2n1 (single isomer, unassigned) [Compound 80] | ≤ 3.98 nM
Cc1ccc(-c2c(C)nn3c(NCc4cccc(-c5nccn5C)c4)cc(C(C)(C)O)nc23)cc1C(=O)N(C)C1CCOC1 (stereo not shown) [Compound 59, 5-(5-(2-Hydroxypropan-2-yl)-2-methyl-7-((3-(1-methyl-1H-imidazol-2-yl)benzyl)amino)pyrazolo[1,5-a]pyrimidin-3-yl)-N,2-dimethyl-N-(tetrahydrofuran-3-yl)benzamide] | ≤ 3.98 nM
COc1ccc(-c2c(C)nn3c(NCc4cccc(-n5cccn5)c4)cc(C(C)(C)O)nc23)cc1C(=O)N1CCC(C)(O)C1 (stereo not shown) [Compound 51] | ≤ 3.98 nM
Cc1ccc(-c2c(C)nn3c(NCc4cccc(-c5nccn5C)c4)cc(C(C)(C)O)nc23)cc1C(=O)N1CCC(O)C1 (stereo not shown) [Compound 41] | ≤ 3.98 nM
CCC(CO)c1cc(NCc2cccc(-c3nccn3C)c2)n2nc(C)c(-c3ccc(OC)c(S(=O)(=O)CCO)c3)c2n1 (stereo not shown) [Compound 86, 2-(3-(3-((2-Hydroxyethyl)sulfonyl)-4-methoxyphenyl)-2-methyl-7-((3-(1-methyl-1H-imidazol-2-yl)benzyl)amino)pyrazolo[1,5-a]pyrimidin-5-yl)butan-1-ol] | ≤ 3.98 nM
COc1ccc(-c2c(C)nn3c(NCc4cccc(-c5nccn5C)c4)cc(C(C)O)nc23)cc1S(C)(=O)=O (stereo not shown) [Compound 1, 1-(3-(4-Methoxy-3-(methylsulfonyl)phenyl)-2-methyl-7-((3-(1-methyl-1H-imidazol-2-yl)benzyl)amino)pyrazolo[1,5-a]pyrimidin-5-yl)ethanol] | ≤ 3.98 nM
COc1ccc(-c2c(C)nn3c(NCc4cccc(-c5nccn5C)c4)cc(C(C)CO)nc23)cc1S(=O)(=O)CCO (stereo not shown) [Compound 53, 2-(3-(3-((2-Hydroxyethyl)sulfonyl)-4-methoxyphenyl)-2-methyl-7-((3-(1-methyl-1H-imidazol-2-yl)benzyl)amino)pyrazolo[1,5-a]pyrimidin-5-yl)propan-1-ol] | ≤ 3.98 nM
Cc1nn2c(NCc3cccc(-c4nccn4C)c3)cc(C(C)(C)O)nc2c1-c1ccc(Cl)c(C(=O)N2CC[C@H](O)C2)c1 [Compound 18] | ≤ 3.98 nM
Cc1ccc(-c2c(C)nn3c(NCc4cccc(-c5nccn5C)c4)cc(C(C)(C)O)nc23)cc1C(=O)N1CCC(C)(O)C1 (stereo not shown) [Compound 31] | ≤ 3.98 nM
Cc1ccc(-c2c(C)nn3c(NCc4cccc(-c5nccn5C)c4)cc(C(C)(C)CO)nc23)cc1C(=O)N(C)CCCO [Compound 55, 5-(5-(1-Hydroxy-2-methylpropan-2-yl)-2-methyl-7-((3-(1-methyl-1H-imidazol-2-yl)benzyl)amino)pyrazolo[1,5-a]pyrimidin-3-yl)-N-(3-hydroxypropyl)-N,2-dimethylbenzamide] | ≤ 3.98 nM
Cc1nn2c(NCc3cccc(-c4nccn4C)c3)cc(C(C)O)nc2c1-c1ccc(Cl)c(C(=O)N(C)CCCO)c1 (single isomer, unassigned) [Compound 57, 2-Chloro-5-(5-(1-hydroxyethyl)-2-methyl-7-((3-(1-methyl-1H-imidazol-2-yl)benzyl)amino)pyrazolo[1,5-a]pyrimidin-3-yl)-N-(3-hydroxypropyl)-N-methylbenzamide] | ≤ 3.98 nM
COc1ccc(-c2c(C)nn3c(NCc4cccc(-c5nccn5C)c4)cc(C(O)C(C)C)nc23)cc1S(=O)(=O)CCO (stereo not shown) [Compound 5] | ≤ 3.98 nM
COc1ccc(-c2c(C)nn3c(NCc4cccc(-n5cccn5)c4)cc(C(C)(C)O)nc23)cc1C(=O)N1CCC[C@@H]1CO [Compound 49] | ≤ 3.98 nM

Now from value to compound:

IC50 | SMILES
≤ 3.98 nM | Cc1nn2c(NCc3cccc(-c4nccn4C)c3)cc(C(C)(C)O)nc2c1-c1ccc(Cl)c(C(=O)N(C)CCO)c1 [Compound 37, 2-Chloro-N-(2-hydroxyethyl)-5-(5-(2-hydroxypropan-2-yl)-2-methyl-7-((3-(1-methyl-1H-imidazol-2-yl)benzyl)amino)pyrazolo[1,5-a]pyrimidin-3-yl)-N-methylbenzamide]
≤ 3.98 nM | Cc1ccc(-c2c(C)nn3c(NCc4cccc(-c5nccn5C)c4)cc(C(C)(C)O)nc23)cc1C(=O)N(C)[C@H](C)CO [Compound 39]
≤ 3.98 nM | COc1ccc(-c2c(C)nn3c(NCc4cccc(-c5nccn5C)c4)cc(C(C)(C)O)nc23)cc1C(=O)N(C)C(C)CO (stereo not shown) [Compound 42]
≤ 3.98 nM | COc1ccc(-c2c(C)nn3c(NCc4cccc(-c5nccn5C)c4)cc(C(C)(C)O)nc23)cc1S(=O)(=O)CCO [Compound 6, 2-(3-(3-((2-Hydroxyethyl)sulfonyl)-4-methoxyphenyl)-2-methyl-7-((3-(1-methyl-1H-imidazol-2-yl)benzyl)amino)pyrazolo[1,5-a]pyrimidin-5-yl)propan-2-ol]
≤ 3.98 nM | Cc1ccc(-c2c(C)nn3c(NCc4cccc(-c5nccn5C)c4)cc(C(C)(C)O)nc23)cc1C(=O)N(C)CCO [Compound 43, N-(2-hydroxyethyl)-5-(5-(2-hydroxypropan-2-yl)-2-methyl-7-((3-(1-methyl-1H-imidazol-2-yl)benzyl)amino)pyrazolo[1,5-a]pyrimidin-3-yl)-N,2-dimethylbenzamide]
≤ 3.98 nM | Cc1nn2c(NCc3cccc(-c4nccn4C)c3)cc(C(C)(C)O)nc2c1-c1ccc(Cl)c(C(=O)N(C)CCCO)c1 [Compound 7, 2-Chloro-5-(5-(2-hydroxypropan-2-yl)-2-methyl-7-((3-(1-methyl-1H-imidazol-2-yl)benzyl)amino)pyrazolo[1,5-a]pyrimidin-3-yl)-N-(3-hydroxypropyl)-N-methylbenzamide]
≤ 3.98 nM | Cc1ccc(-c2c(C)nn3c(NCc4cccc(-c5nccn5C)c4)cc(C(C)(C)O)nc23)cc1C(=O)N(C)CC(C)O (single isomer, unassigned) [Compound 62, 5-(5-(2-Hydroxypropan-2-yl)-2-methyl-7-((3-(1-methyl-1H-imidazol-2-yl)benzyl)amino)pyrazolo[1,5-a]pyrimidin-3-yl)-N-(2-hydroxypropyl)-N,2-dimethylbenzamide]
